Results taken from US11434250B2, “Pyrazolo[1,5a]pyrimidine derivatives as IRAK4 modulators” (Genentech, Inc., priority 2017, dated 2022).
≈ marks a conversion by molar mass, not a printed value.

Legend:
human IRAK4 = human IRAK4 (Homo sapiens (Human), UniProt Q9NWZ3); test: IRAK4 enzymatic assay (Transcreener fluorescence polarization, ADP detection); assay type: biochemical; settings: recombinant full-length IRAK4; 125 uM ATP; 90 min
Protocol: Compounds were assayed for inhibition of human IRAK4 and IRAK1 catalytic activity using recombinant enzyme produced from insect cells. Full-length IRAK4 protein, carrying an N-terminal His6-Tag, was obtained from Life Technologies (Carlsbad, Calif., USA). The IRAK1 construct was produced internally and was comprised of IRAK1 residues Arg194 to Ser712, preceded by an NH2-terminal His6 tag and the coding sequence for glutathione-S-transferase.
Kinase activities were assayed using the Transcreener-Fluorecescence polarization platform (BelBrook Labs, Madison, Wis., USA) that measures amounts of the reaction product, ADP. […] Final IRAK4 assay conditions were 1.25 nM IRAK4; 125 uM ATP; 10 uM MgC2; 125 uM peptide in reaction buffer (25 mM HEPES (pH7.4); 2 mM Dithiothreitol; 0.015% Brij-35; and 0.5% dimethyl sulfoxide. The IRAK1 activity was optimized similarly, yielding final assay conditions of […] IRAK1; 62.5 uM ATP; 5 uM MgCl2, and 62.5 uM IRAK1 peptide in reaction buffer for 60 min.
Assays of compounds for kinase inhibition were performed using inhibitors serially-diluted in dimethyl sulfoxide, which was accomplished with a LabCyte Echo 555 liquid dispenser. 384 well assay plates spotted with compound received 4 ul of a 2× substrate (ATP+peptide) mix in reaction buffer, followed by 4 ul of 2× enzyme diluted in reaction buffer. Reactions were halted at 60 (IRAK1) or 90 (IRAK4) min by addition of 6 ul of detection buffer, containing EDTA ([…] final concentration), 0.95 ug of the ADP-binding antibody ADP2, ADP tracer (3 nM final concentration), and […] HEPES. Following a 1 hr incubation, fluorescence polarization of the ADP2-antibody::TRACER complex was read on a Tecan M1000 plate reader using a 635/20 excitation filter in combination with a 670/20 emission filter. Delta milli-P values were analyzed using Genedata software to fit dose-response curves and compute compound Ki values, using ATP Km values of 642 um and 83.2 uM for IRAK4 and IRAK1, respectively. Table 3 provides IRAK4 Ki values for representative compounds of the present invention.

Kinetic solubility assay = assay type: physicochemical; settings: for solubility kinetic at 24 h: PBS buffer with 2% DMSO, aqueous buffer, kinetic from dmso stock, PBS buffer pH 7.4, 2% DMSO, 24 hours shaking at room temperature, UHPLC-CLND; for Fold improvement in kinetic solubility: example compound versus its matched pair phenyl compound
Protocol: The kinetic solubility assay started with compound DMSO stock solutions. This assay used Millipore Multiscreen 96-well filter plates for the 24 hour equilibration shaking. Samples were prepared by adding 4 μL of the 10 mM compound DMSO stock solutions into 196 μL of PBS buffer pH 7.4 in the 96-well filter plates, yielding a compound concentration of 200 μM and 2% DMSO. The filter plate was sealed with aluminum sealing film and shaken at room temperature for 24 hours at 1000 rpm. When shaking has completed, the solutions were filtered into a clean 96-well plate utilizing a vacuum manifold. After filtration, some precipitate is often observed at the bottom of the filtration plate wells. Most of the precipitates appear to be crystalline under a polarizing light microscope. The filtrate samples were diluted by a factor of 2 using PBS pH7.4 buffer and then transferred to a 384-well plate for analysis by UHPLC-CLND (CLND: Chemiluminescence nitrogen detector). 5 μL of each sample was injected twice into the UHPLC-CLND for two repeat analysis.
Samples were detected and analyzed using UV 254 nm and CLND. UV 254 nm is used primarily to confirm the sample purity but in rare cases, is also used to quantify the concentration of compounds with no nitrogens, where additional work is done to create a compound specific calibration curve. The identification of CLND target peaks of each compound were confirmed by LCMS. Sample quantification was accomplished by CLND peak intensity, the calibration curve, and the number of nitrogen contained in the compound. One calibration curve of caffeine was used for solubility quantitative determination. A fresh calibration curve was created for every batch. The number of nitrogens in a compound used for this quantification was corrected for the actual configuration of the nitrogen in the compound.

[1] = Plasma protein binding using rapid equilibrium dialysis (RED); assay type: in vitro ADME; settings: pH 7.4, human plasma, 37° C., read-out: Human PPB (converted)
Protocol: Plasma protein binding was measured in duplicate using rapid equilibrium dialysis (RED) device ((Thermo Scientific Pierce) in a 96-well format. Briefly, 10.0 μL drug or control compounds (0.5 mM in DMSO) was mixed with 1000 μL plasma (pH adjusted to 7.4) from various species (BioreclamationIVT). Aliquots of 300 μL drug/plasma mixture were placed into the donor side chamber of a single-use RED plate, and 500 μL aliquots of PBS buffer were placed into the adjacent chamber as the receiver side. The plate was incubated on an orbital shaker at 400 rpm, at 37° C. for 4 hours. After completion of incubation, 50 μL aliquots from the PBS buffer side were mixed with 5 μL of blank plasma matrix, and 5 μL from the donor side (plasma) were mixed with 50 μL blank PBS buffer. All samples were then crashed with 200 μL acetonitrile (containing internal standard) to precipitate plasma proteins. The samples were centrifuged at 3750 rpm for 10 min to pellet the proteins. The supernatants were carefully transferred to a fresh 96-well plate, and diluted with an equivalent volume of water. The samples were then analyzed by LC-MS/MS (ABI 4000, ABI Sciex). Data acquisition and processing was performed with Analyst 1.6.1 and Multiquant 2.1. The percent of protein binding and fraction unbound (fu) in matrix was calculated from taking the ratio of responses (peak areas) on the receiver side (buffer) to those on the donor side (plasma). The ratios were normalized to the internal standard.

Sequence of human IRAK4 (Q9NWZ3 whole entry, the tested form may be a part): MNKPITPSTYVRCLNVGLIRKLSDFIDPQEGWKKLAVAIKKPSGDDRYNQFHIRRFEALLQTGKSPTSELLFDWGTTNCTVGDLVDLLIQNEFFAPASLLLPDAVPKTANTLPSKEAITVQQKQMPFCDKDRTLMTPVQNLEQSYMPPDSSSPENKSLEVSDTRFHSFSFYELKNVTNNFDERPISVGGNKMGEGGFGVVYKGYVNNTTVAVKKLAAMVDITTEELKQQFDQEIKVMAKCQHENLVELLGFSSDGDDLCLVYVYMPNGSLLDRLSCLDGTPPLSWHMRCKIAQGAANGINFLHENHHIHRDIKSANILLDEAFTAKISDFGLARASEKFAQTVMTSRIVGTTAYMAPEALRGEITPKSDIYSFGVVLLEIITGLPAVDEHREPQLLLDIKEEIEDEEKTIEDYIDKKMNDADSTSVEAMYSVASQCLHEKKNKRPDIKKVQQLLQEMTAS

Compound	Ki (human IRAK4)	solubility kinetic at 24 h (Kinetic solubility assay)	Fold improvement in kinetic solubility (Kinetic solubility assay)	fraction unbound at 4 h, 5 µM [1]
CC1(C)Cc2cc(NC(=O)c3cnn4cccnc34)c(N3CCOC[C@H]3CO)nc2O1 (single isomer, unassigned) [Example 7]	2400 nM	–	–	–
CC1(C)Cc2cc(NC(=O)c3cnn4cccnc34)c(N3CCOC[C@@H]3CO)nc2O1 (single isomer, unassigned) [Example 8]	820 nM	–	–	–
CC(C)(O)[C@]1(C)Cc2cc(NC(=O)c3cnn4cccnc34)c(N3CCOCC3)nc2O1 (single isomer, unassigned) [Example 13]	91 nM	–	–	–
CC1(CO)Cc2cc(NC(=O)c3cnn4cccnc34)c(N3CCOCC3)nc2O1 (stereo in doubt) [Example 10, (S)—N-(2-(Hydroxymethyl)-2-methyl-6-morpholino-2,3-dihydrofuro[2,3-b]pyridin-5-yl)pyrazolo[1,5-a]pyrimidine-3-carboxamide]	88 nM	159 µM (≈ 65.3 µg/mL)	15.9	–
CC1(CO)Cc2cc(NC(=O)c3cnn4cccnc34)c(N3CCOCC3)nc2O1 (stereo in doubt) [Example 11, (R)—N-(2-(hydroxymethyl)-2-methyl-6-morpholino-2,3-dihydrofuro[2,3-b]pyridin-5-yl)pyrazolo[1,5-a]pyrimidine-3-carboxamide]	–	–	13.7	–
C[C@]1(O)COc2nc(N3CCN(CC(F)F)CC3)c(NC(=O)c3cnn4cccnc34)cc2C1 (stereo in doubt) [Example 18, N-[rac-(3R)-7-[4-(2,2-difluoroethyl)piperazin-l-yl]-3-hydroxy-3-methyl-2,4-dihydropyrano[2,3-b]pyridin-6-yl]pyrazolo[1,5-a]pyrimidine-3-carboxamide]	210 nM	167 µM (≈ 79.1 µg/mL)	12.8	–
C[C@@]1(O)COc2nc(N3CCN(CC(F)F)CC3)c(NC(=O)c3cnn4cccnc34)cc2C1 (stereo in doubt) [Example 19, N-[rac-(3S)-7-[4-(2,2-difluoroethyl)piperazin-l-yl]-3-hydroxy-3-methyl-2,4-dihydropyrano[2,3-b]pyridin-6-yl]pyrazolo[1,5-a[pyrimidine-3-carboxamide]	31 nM	177 µM (≈ 83.8 µg/mL)	31.6	–
C[C@@]1(CO)Cc2cc(NC(=O)c3cnn4cccnc34)c(N3CCN(CC(F)F)CC3)nc2O1 (stereo in doubt) [Example 20, N-[rac-(2S)-6-[4-(2,2-difluoroethyl)piperazin-l-yl]-2-(hydroxymethyl)-2-methyl-3H-furo[2,3-b]pyridin-5-yl]pyrazolo[1,5-a]pyrimidine-3-carboxamide]	9.1 nM	–	–	–
C[C@]1(CO)Cc2cc(NC(=O)c3cnn4cccnc34)c(N3CCN(CC(F)F)CC3)nc2O1 (stereo in doubt) [Example 21, N-[rac-(2R)-6-[-(2,2-difluoroethyl)piperazin-l-yl]-2-(hydroxymethyl)-2-methyl-3H-furo[2,3-b]pyridin-5-yl]pyrazolo[1,5-a]pyrimidine-3-carboxamide]	13 nM	124 µM (≈ 58.7 µg/mL)	27.0	0.363
CN1Cc2cc(NC(=O)c3cnn4cccnc34)c(N3CCOCC3)nc2C1=O [Example 12, N-(6-Methyl-2-morpholino-7-oxo-6,7-dihydro-5H-pyrrolo[3,4-b]pyridin-3-yl)pyrazolo[1,5-a]pyrimidine-3-carboxamide]	540 nM	39 µM (≈ 15.3 µg/mL)	5.7	–

More lines, in order of falling Ki (human IRAK4), values ahead:

Ki (human IRAK4)	solubility kinetic at 24 h (Kinetic solubility assay)	Fold improvement in kinetic solubility (Kinetic solubility assay)	fraction unbound at 4 h, 5 µM [1]	Compound
48 nM	–	–	–	CC(C)(O)[C@@]1(C)Cc2cc(NC(=O)c3cnn4cccnc34)c(N3CCOCC3)nc2O1 (single isomer, unassigned) [Example 14]
45 nM	137 µM (≈ 56.2 µg/mL)	–	–	C[C@@]1(CO)Cc2cc(NC(=O)c3cnn4cccnc34)c(N3CCOCC3)nc2O1 (single isomer, unassigned) [Example 11]
39 nM	166 µM (≈ 65.5 µg/mL)	166.0	0.143	CC1(C)Cc2cc(NC(=O)c3cnn4cccnc34)c(N3CCOCC3)nc2O1 [Example 1, N-(2,2-dimethyl-6-morpholino-2,3-dihydrofuro[2,3-b]pyridin-5-yl)pyrazolo[1,5-a]pyrimidine-3-carboxamide]
33 nM	–	–	–	CC1(C)Cc2cc(NC(=O)c3cnn4cccnc34)c(N3CCN(CCO)CC3)nc2O1 [Example 4, N-(6-(4-(2-Hydroxyethyl)piperazin-1-yl)-2,2-dimethyl-2,3-dihydrofuro[2,3-b]pyridin-5-yl)pyrazolo[1,5-a]pyrimidine-3-carboxamide]
6.6 nM	–	–	–	Cc1cnc2c(C(=O)Nc3cc4c(nc3N3CCN(CC(N)=O)CC3)O[C@](C)(CO)C4)cnn2c1 (single isomer, unassigned) [Example 15]
6.4 nM	–	–	–	CC1(C)Cc2cc(NC(=O)c3cnn4cccnc34)c(OCC3CC3)nc2O1 [Example 17, N-[6-(cyclopropylmethoxy)-2,2-dimethyl-3H-furo[2,3-b]pyridin-5-yl]pyrazolo[1,5-a]pyrimidine-3-carboxamide]
5.6 nM	112 µM (≈ 49.3 µg/mL)	43.1	–	CC1(C)Cc2cc(NC(=O)c3cnn4cccnc34)c(N3CCC(F)(CO)CC3)nc2O1 [Example 5, N-[6-[4-Fluoro-4-(hydroxymethyl)-1-piperidyl]-2,2-dimethyl-3H-furo[2,3-b]pyridin-5-yl]pyrazolo[1,5-a]pyrimidine-3-carboxamide]
5.5 nM	–	–	–	Cc1cnc2c(C(=O)Nc3cc4c(nc3N3CCN(CC(N)=O)CC3)O[C@@](C)(CO)C4)cnn2c1 (single isomer, unassigned) [Example 16]
4.2 nM	–	–	0.074	CC1(C)Cc2cc(NC(=O)c3cnn4cccnc34)c(N3CCC(CO)CC3)nc2O1 [Example 2, N-(6-(4-(Hydroxymethyl)piperidin-1-yl)-2,2-dimethyl-2,3-dihydrofuro[2,3-b]pyridin-5-yl)pyrazolo[1,5-a]pyrimidine-3-carboxamide]
4.1 nM	7.5 µM (≈ 3.27 µg/mL)	7.5	–	Cc1cnc2c(C(=O)Nc3cc4c(nc3N3CCC(CO)CC3)OC(C)(C)C4)cnn2c1 [Example 3, N-(6-(4-(Hydroxymethyl)piperidin-1-yl)-2,2-dimethyl-2,3-dihydrofuro[2,3-b]pyridin-5-yl)-6-methylpyrazolo[1,5-a]pyrimidine-3-carboxamide]
